Assay results taken from publication PMC12164071, “Lysine targeting covalent inhibitors of malarial kinase PfCLK3” (RSC Medicinal Chemistry, 2025).
“Also recorded” adds a separate entry of the source. Read-outs that look alike come from different tables or passages of the source.

What was measured:
[1] = target: recombinant PfCLK3 (Plasmodium falciparum, UniProt Q8IIL5); assay: TR-FRET kinase assay at Km ATP; type: biochemical; conditions: for IC50: 2 hour incubation, errors SD, N ≥ 3, * concentration response curve not complete; for kinase activity in words: Km ATP
Sequence of recombinant PfCLK3 (Q8IIL5 entry or part of it): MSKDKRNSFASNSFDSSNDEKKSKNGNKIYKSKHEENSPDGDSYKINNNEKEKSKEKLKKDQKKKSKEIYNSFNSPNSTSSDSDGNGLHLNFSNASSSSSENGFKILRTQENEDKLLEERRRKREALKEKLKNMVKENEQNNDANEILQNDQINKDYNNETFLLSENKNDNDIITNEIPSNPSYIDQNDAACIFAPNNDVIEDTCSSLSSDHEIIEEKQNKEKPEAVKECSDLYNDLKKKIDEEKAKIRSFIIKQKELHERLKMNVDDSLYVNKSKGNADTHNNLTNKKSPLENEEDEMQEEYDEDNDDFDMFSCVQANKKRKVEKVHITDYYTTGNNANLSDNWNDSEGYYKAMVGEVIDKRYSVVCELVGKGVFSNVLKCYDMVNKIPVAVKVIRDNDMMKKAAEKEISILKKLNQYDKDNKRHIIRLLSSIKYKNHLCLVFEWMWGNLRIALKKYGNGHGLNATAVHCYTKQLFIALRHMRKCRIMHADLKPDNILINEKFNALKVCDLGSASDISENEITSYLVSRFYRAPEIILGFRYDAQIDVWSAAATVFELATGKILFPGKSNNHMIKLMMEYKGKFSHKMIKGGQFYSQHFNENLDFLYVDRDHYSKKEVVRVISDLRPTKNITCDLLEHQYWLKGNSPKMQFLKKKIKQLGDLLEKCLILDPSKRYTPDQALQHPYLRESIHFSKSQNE
Protocol: All compounds were then evaluated against recombinant PfCLK3 using a TR-FRET kinase assay (Fig. 5). […]
Time Resolved Förster Resonance Energy Transfer (TR-FRET) Assay
Tr-FRET technology was used to determine kinase activity and Km ATP before profiling compounds. An 11-point half-log serial dilution of each test compound was prepared in 100% DMSO at 100X final test concentration. The dilution series were dispensed onto assay plates with liquid handling machinery using positive displacement. The final DMSO concentration in the assay was 1%. To obtain IC 50 values, full length recombinant PfCLK3 was prepared in 1X assay buffer (50 mM Hepes, 10 mM MgCl2, 1 mM EGTA, 0.01% Tween20, 2 mM TCEP) at a 2X concentration and incubated with compounds for 15 minutes at room temperature before addition of ULight-labelled peptide substrate (MBP) with Km ATP (at 2X concentration). The reaction was centrifuged and incubated for 2 hr at 37 °C. To stop the reaction, 1X Lance detection buffer was added with 1 nM Eu-labelled anti-MBP and 10 mM EDTA, and the reaction was incubated in the dark for 2 hr at room temperature to allow detection to take place. Plate output was read on a Pherastar FSX and data analysed in Graphpad Prism to a 4-parameter curve fit. […]

[2] = Human cell viability assay (resazurin); conditions: HepG2, 48 hours, errors SD, N ≥ 3
Protocol: Cytotoxicity was assessed in HepG2 cells to complement the selectivity evaluations (Fig. 7). […]
Human cell viability assay.
Mycoplasma tested HepG2 cells were cultured in Dulbecco’s Modified Eagle Medium
(DMEM) with 10% fetal bovine serum, 1% non-essential AA, 1% sodium pyruvate, 1% Pen-
strep and 100ug/mL Normocin. Cultures were incubated at 37 ℃, 5% CO2. Cells were
detached using 0.05% trypsin-EDTA. 500nL of drug compound dilutions, in triplicate, were
added to 384-well, black, clear bottom assay plates using a Mosquito liquid handling
machine. Assay plates, containing compound dilutions, were seeded at 5,000 cells/well and
incubated for 48 hours. 40uM final concentration resazurin, diluted in DPBS, was added to
the assay plates which were then incubated for 4 hours and analysed using a ClariostarTM
plate reader to measure fluorescence Intensity (545-20nm/600-40nm). 3 control compounds
were included on every assay plate, Tamoxifen, Puromycin and TCMDC-135051. Maximum
signal control was obtained from wells with DMSO only and minimum signal control with
Tamoxifen 100uM. These were used to normalise data and give percentage inhibition of
metabolic activity. Experiments were performed N=3 and normalised data was grouped and a
nonlinear regression curve with four parameters was plotted using GraphPad Prism,
generating activity data. […]

[3] = target: human (h)CLK2 (Homo sapiens, UniProt P49760); assay: Selectivity kinase assay against hCLK2; type: biochemical; conditions: for IC50: errors SD, N ≥ 3
Sequence of human (h)CLK2 (P49760 whole entry): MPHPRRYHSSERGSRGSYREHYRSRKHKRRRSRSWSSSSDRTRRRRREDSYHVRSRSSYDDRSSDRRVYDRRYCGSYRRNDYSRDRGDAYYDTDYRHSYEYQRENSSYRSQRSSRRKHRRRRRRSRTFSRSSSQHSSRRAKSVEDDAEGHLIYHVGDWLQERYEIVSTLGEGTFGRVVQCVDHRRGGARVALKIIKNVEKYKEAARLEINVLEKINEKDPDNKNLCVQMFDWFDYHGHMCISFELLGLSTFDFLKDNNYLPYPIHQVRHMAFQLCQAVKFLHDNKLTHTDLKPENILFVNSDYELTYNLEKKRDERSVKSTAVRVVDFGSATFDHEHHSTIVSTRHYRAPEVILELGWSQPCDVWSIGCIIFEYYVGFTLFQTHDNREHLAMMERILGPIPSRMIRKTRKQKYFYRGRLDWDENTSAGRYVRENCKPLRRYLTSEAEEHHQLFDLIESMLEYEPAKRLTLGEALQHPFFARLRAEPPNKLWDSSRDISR
Source text: Given this work aims to target a conserved residue, selectivity must be derived from the reversible ligand rather than the covalent interaction.

[4] = test system: 3D7 Plasmodium falciparum parasites; assay: Ex vivo P. falciparum (3D7) inhibition assay; type: cell-based
Protocol: Compounds 4, 5, 8 and 9 were then assessed against 3D7 Plasmodium falciparum parasites (Fig. 6). […]
P. falciparum (3D7) culture and synchronisation.
P. falciparum cultures were maintained in RPMI-1640 media (Invitrogen) supplemented with 0.2% sodium bicarbonate, 0.5% Albumax II, 2.0 mM L-glutamine (Sigma) and 10 mg/L gentamycin. For continuous culture, the parasites were maintained at 4% haematocrit in human erythrocytes from 0+ blood donors and between 0.5 - 3% parasitaemia in an incubator at 37 °C, 5% carbon dioxide (CO 2), 5% oxygen (O 2) and 90% nitrogen (N 2). To obtain highly synchronous ring stage parasites for assays, cultures were double synchronised using Percoll and Sorbitol synchronisation. First, highly segmented schizonts were enriched by centrifugation on a 70% Percoll (GE Healthcare) cushion gradient. The Schizont pellet was collected and washed twice before fresh erythrocytes were added to a final haematocrit of 4%, and incubated for about 1-2 hours shaking continuously to allow merozoites egress and re-invasion of new erythrocytes. Residual schizonts were then removed by a second Percoll purification followed by treating the ring pellet with sorbitol to generate highly synchronous 1-2 hours old ring-stage parasites.
Ex vivo P. Falciparum (3D7) inhibition assay.
To determine the IC 50 of the molecules in parasites (P. falciparum 3D7) ex vivo, the molecules were diluted 1 in 3 from a starting concentration of 100 μM for 12 dilution points in triplicate. 50 μL of freshly diluted drugs, at twice the required final concentrations were aliquoted into black 96-well plates. To the compound plates, 50 μL of parasites prepared at 8% haematocrit at a parasitaemia (0.3 - 0.5%) were added and mixed by pipetting up and down several times giving a final culture volume of 100 μL at the required compound concentration (top concentration of 100 μM) and 4% haematocrit. To the ‘no compound’ control, growth media was added and uninfected erythrocytes were included on the plate as blank. The outer wells were filled with media to reduce evaporation from the experimental wells and the plates incubated for 72 hours (±2 hours) to allow the parasites sufficient time to re-invade before they are collected and frozen. For cellular washout studies, compound media was exchanged for compound-free media after 6 hours, and the parasites incubated for a […]

[5] = test system: PfCLK3 kinase domain (amino acid residues 334–699); assay: Intact protein LC-MS for covalent adduct formation; type: binding, Plasmodium falciparum; conditions: for covalent adduct formation with PfCLK3 kinase domain: pH 7.4, 1:5 protein to compound ratio; for Relative Ratio, assignment apo / Relative Ratio, assignment holo (singly modified): compound 4 with C-terminal His-tag construct
Protocol: All compounds were then evaluated for covalent binding with PfCLK3 kinase domain (amino acid residues 334–699) using intact protein LC-MS (Fig. 3). Compounds were incubated at pH 7.4 in a 1 : 5 protein to compound ratio and analysed for covalent adduct formation using ESI TOF. […] Compounds 8 and 9 yielded a fully modified species at 43 957 Da, which can be attributed to the mass of the apo protein + the mass of the pyridinium product adduct. A minor mass (20–25%) of 44 378 Da was also detected, consistent with a doubly modified PfCLK3 kinase domain. This implies that cross reactivity with non-catalytic lysine residues is possible using the ethynyl benzaldehyde functionality, although a minor product. […]
dialyzing the protein into a final buffer containing 20 mM HEPES pH 7.4, 150 mM NaCl, 1 […]
PfCLK3 kinase domain (residues 334–699 with a C-terminal TEV cleavage sequence and His6-tag) was cloned into pFastBac vector and expressed and purified from Sf21 insect cells.
Cells were infected using P2 BIICs at an MOI of 0.2 and left to express for 72 h. Harvested cells were lysed and centrifuged before purifying using IMAC and SEC in a final buffer containing 20 mM HEPES pH 7.4, 150 mM NaCl, 1 mM TCEP, and 1 mM MgCl2.
Protein Mass Spectrometry
For intact protein mass spectrometry, compounds were incubated with a 5-fold excess of compound in buffer containing 20 mM HEPES pH 7.4, 150 mM NaCl, 1 mM TCEP, and 1 mM MgCl 2. 5 μL of kinase domain (1 mg/mL) was added to 25 μL of buffer before 0.12 μL of compound in a 10 mM DMSO stock was added to start the incubation. Samples were incubated at room temperature for 4 hours before 10 μL alliquots were analysed by LC-MS.
Intact protein LC-MS experiments were performed on a Synapt G2 Q-ToF instrument equipped with electrospray ionisation (Waters Corp., Manchester, UK). LC separation was achieved using an Acquity UPLC equipped with a reverse phase C4 Aeris Widepore 50 × 2.1 mm HPLC column (Phenomenex, CA, USA) and a gradient of 5–95% acetonitrile (0.1% formic acid) over 10 minutes was employed. Data analysis was performed using MassLynx v4.1 and deconvolution was performed using MaxEnt. […]

[6] = 3D7, Pf3D7 parasites, 72 hours, errors SD, N ≥ 3, read-out: EC50 (3D7)
[7] = 3D7, Pf3D7 parasites, 72 hours, errors SD, N ≥ 3, read-out: pEC50 (3D7) (converted)
[8] = pH 7.4, 1:5 protein to compound, 4 hours room temperature

| Compound | IC50 ([1]; IC50 (apparent), Km ATP (5 μM)) [nM] | IC50 ([1]; pIC50, Km ATP (5 μM)) [nM] | CC50 at 48 h ([2]; CC50 (HepG2)) [nM] | CC50 at 48 h ([2]; pCC50 (HepG2)) [nM] | covalent adduct formation with PfCLK3 kinase domain [5] | Relative Ratio, assignment apo [5, 8] | other results |
| --- | --- | --- | --- | --- | --- | --- | --- |
| CCN(CC)Cc1ccc(OC)c(-c2cnc3[nH]cc(-c4ccc(O)c(C=O)c4)c3c2)c1 [Compound 5] | 19 ± 10 | 19.5 | 4740 ± 3180 | 2690 | showed covalent adduct formation; also recorded: formed a covalent adduct with PfCLK3 | 68 | IC50 ([3]; read-out: pIC50 (hCLK2) (converted)): 11 nM; fold more potent against hCLK2 than parent S1 ([3]; relative to S1): 20 fold; EC50 [4, 6]: 3260 ± 1670 nM; EC50 [4, 7]: 3240 nM; partial covalent bond formation, modification ([5]; imine adduct): 32–60%; Relative Ratio, assignment holo (singly modified) [5, 8]: 32 |
| C=CS(=O)(=O)Nc1ccc(-c2c[nH]c3ncc(-c4cc(CN(CC)CC)ccc4OC)cc23)cc1 [Compound 11] | 892 | 891 |  |  |  |  | kinase activity in words [1]: poorly active, not reaching 100% inhibition at the highest concentration tested |
| C=CC(=O)Nc1ccc(-c2c[nH]c3ncc(-c4cc(CN(CC)CC)ccc4OC)cc23)cc1 [Compound 13] | 1950 | 2000 |  |  |  | 100 | kinase activity in words [1]: significantly lower activity than all other analogues |
| CCN(CC)Cc1ccc(OC)c(-c2cnc3[nH]cc(-c4ccc(S(=O)(=O)F)cc4)c3c2)c1 [Compound 3] | 302 ± 33 | 302 |  |  |  | 100 |  |
| CCN(CC)Cc1ccc(OC)c(-c2cnc3[nH]cc(-c4ccc(C=O)c(O)c4)c3c2)c1 [Compound 7] | 83 ± 42 | 83.2 |  |  | unable to covalently bind the protein | 100 |  |
| C#Cc1ccc(-c2ccnc3[nH]c(-c4cc(CN(CC)CC)ccc4OC)cc23)cc1C=O [Compound 8] | 29 ± 3 | 28.8 | 12300 ± 2530 | 12300 | showed covalent adduct formation; also recorded: formed a covalent adduct with PfCLK3 |  | IC50 ([3]; read-out: IC50 (hCLK2)): 69 ± 31 nM; EC50 [4, 6]: 2270 ± 2890 nM; EC50 [4, 7]: 2290 nM; doubly modified PfCLK3 kinase domain, minor mass abundance ([5]; 44 378 Da species): 20–25%; Relative Ratio, assignment holo (doubly modified) [5, 8]: 25; Relative Ratio, assignment holo (singly modified) [5, 8]: 75 |
| CCN(CC)Cc1ccc(OC)c(-c2cc3c(-c4ccc(C=O)c(O)c4)ccnc3[nH]2)c1 [Compound 6] | 155 ± 19 | 155 |  |  | unable to covalently bind the protein | 100 |  |
| CCN(CC)Cc1ccc(OC)c(-c2cc3c(-c4ccc(C(=O)O)c(C(C)C)c4)ccnc3[nH]2)c1 [Compound 1, TCMDC-135051, reference compound] | 17 ± 3 | 17.4 | 2750 ± 580 | 2750 |  |  | IC50 ([3]; IC50 (hCLK2)): 879 ± 325 nM; IC50 ([3]; pIC50 (hCLK2)): 891 nM; EC50 ([4]; 3D7, 72 h, read-out: EC50 (3D7)): 266 ± 11 nM; EC50 ([4]; 3D7, 72 h, read-out: pEC50 (3D7) (converted)): 263 nM |
| CCN(CC)Cc1ccc(OC)c(-c2cc3c(-c4ccc(S(=O)(=O)F)cc4)ccnc3[nH]2)c1 [Compound 2] | 83 ± 10 | 83.2 |  |  |  | 100 |  |
| C=CC(=O)Nc1ccc(-c2ccnc3[nH]c(-c4cc(CN(CC)CC)ccc4OC)cc23)cc1 [Compound 12] |  |  |  |  |  | 100 |  |
